# Laboratory results taken from patent publication US20020001582A1, “Methods and compositions for inhibiting microbial growth” (priority 1999, published 2002).
# Columns and labels:
# Sclerotinia homoeocarpa = assay: Protective treatment of mature bentgrass (lysozyme 24 hours before inoculation); type: in vivo
# Experimental: One year old bentgrass (Agrotis spp.) cv Pennlink was used as the host in this trial. It was grown in an open field at Select Sand Farm in Fort Langley, B.C. Round pieces of turfgrass, 6 cm diameter, were cut out and placed on 5 cm high pots (made from PVC pipes) containing steam sterilized river washed sand. The potted grass was regularly watered, fertilized and maintained at a cutting height of approximately 2.0 cm above the soil surface.
# The efficacy of egg white lysozyme was tested on Sclerotinia homoeocarpa. Virulent isolates of the test fungi were grown on a rye grain medium for approximately one week. This medium consisted of 50 g of rye grain, 1 g of CaCO3, and 75 ml of water. The medium was prepared in a 250 ml Erlenmeyer flask and autoclaved for 30 minutes. Three to five plugs of the actively growing mycelia from one-week-old culture on potato dextrose agar were transferred into flasks, and incubated in the dark at room temperature.
# Lysozyme was applied with a hand held spray bottle. Treated and untreated bentgrass was then inoculated with the test fungi by placing 3 infected rye kernels in the center of the pot, just above the soil surface. After inoculation, the pots were placed in humidity chambers on a greenhouse bench. […]
# Pots were removed from the humidity chamber and evaluated individually for disease severity. […]
# IM114 (Monilinia) = assay: Inhibition of Monilinia by lysozyme in PD broth, % plate coverage; type: cell-based
# Experimental: (§1) Monilinia was grown in petri dishes on PD agar. Potato dextrose broth was prepared, poured into glass dilution bottles (100 ml each), autoclaved and allowed to cool. […] A fungal square (plug) of each culture was cut and placed in/near the center of each plate. Fungal growth was quantified by measuring the diameter of growth of each fungus while it was growing on the liquid media in each petri dish using a ruler. Each treatment was done with triplicates. The experiment was repeated three times (three batches). The observation period for each batch was 2 weeks.
# (§2) The fungal growth was expressed in % coverage of the petri dishes by the fungal patches. The calculation is presented in the following equation:
# (§3) Fungal growth (%)=(area of fungal patch/total plate area)×100
# (§4) The average plate coverage for the treatments was plotted against the time after inoculation (FIGS. 20 and 21). Statistical analysis was carried out using SigmaStat (Version 2.0, SPSS Science, 1997).
# IM115 (Monilinia) = assay: as above; type: cell-based
# Experimental: as §1, §2, §3, §4
substance,measurement,setting,value
"lysozyme: type c egg white lysozyme, enzyme of approximately 129 amino acids; commercially available from Canadian Inovatech, Inc.",differences in disease severity among the three lysozyme concentrations,"Sclerotinia homoeocarpa; 5,000, 10,000, 20,000 ppm",no significant differences
same,disease severity compared to the untreated control,"Sclerotinia homoeocarpa; 5,000, 10,000 or 20,000 ppm, day 7, 10 or 21 after inoculation, p≦0.01",significant reductions
same,concentration that can significantly inhibit the growth for at least 2 weeks,"IM114 (Monilinia); in general, in vitro, PD broth",250-500 ppm
same,concentration showing significant fungal growth reduction,IM114 (Monilinia); p<0.05,100 ppm
same,concentration that can significantly inhibit the growth for at least 2 weeks,"IM115 (Monilinia); in general, in vitro, PD broth",250-500 ppm
same,concentration showing significant fungal growth reduction,IM115 (Monilinia); p<0.05,100 ppm
